Measured values reported in patent US9616028B2, “Bilayer tablet formulations” (AstraZeneca AB, priority 2009, dated 2017).

System: patients with inadequately controlled type 2 diabetes
Procedure: The data represent findings from a randomized, double-blind, placebo-controlled study of 546 individuals with type 2 diabetes whose HbA1c was greater than or equal to 7.0 percent and less than or equal to 10 percent at baseline. […] Patients in all arms also received metformin (greater than or equal to 1500 mg/d). […] Exploratory endpoints included body weight decrease of greater than or equal to 5 percent or greater than or equal to 10 percent as well as body weight percent change from baseline.

For `CCOc1ccc(Cc2cc([C@@H]3O[C@H](CO)[C@@H](O)[C@H](O)[C@H]3O)ccc2Cl)cc1` [dapagliflozin, (2S,3R,4R,5S,6R)-2-(4-chloro-3-(4-ethoxybenzyl)phenyl)-6-(hydroxymethyl)tetrahydro-2H-pyran-3,4,5-triol], the “mean reductions in body weight compared to individuals taking placebo” value (add-on to metformin, 24 weeks) was “statistically greater”, the “adjusted mean change in FPG from baseline at Week 24” value (dapagliflozin 10 mg plus metformin) was -23.5 mg/dL and the “patients who achieved weight losses greater than or equal to 5 percent compared to placebo” value (exploratory endpoint, add-on to metformin, 24 weeks) was “more patients”.
